Columns and labels:
Test in all cases: relative viability (nuclei count vs DMSO), 5 days (fraction); higher = more cells survive
LU99A = system: LU99A
Method in brief: (§1)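 A single step with final 0.05% Triton X-100, 1% formaldehyde and 1 ug/ml Hoechst fixed the cells and stained nuclei 5 days after treatment. Lung cancer cell lines in 1536-well plates had been treated by pin tool the day after seeding with one drug alone or a fixed anchor-drug dose plus five library-drug doses (not always all listed) in √10 steps, and nuclei were counted on 4× images. Relative viability is the ratio of nuclei in treated wells to nuclei in vehicle wells, taken as the median of duplicate plates.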

NCI-H596 = system: NCI-H596
Method in brief: as §1

LCLC-103H = system: LCLC-103H
Method in brief: as §1

HCC-44 = system: HCC-44
Method in brief: as §1

PC-3 [JPC-3] = system: PC-3 [JPC-3]
Method in brief: as §1

201T = system: 201T
Method in brief: as §1

NCI-H727 = system: NCI-H727
Method in brief: as §1

NCI-H23 = system: NCI-H23
Method in brief: as §1

LCLC-97TM1 = system: LCLC-97TM1
Method in brief: as §1

NCI-H460 = system: NCI-H460
Method in brief: as §1

A-427 = system: A-427
Method in brief: as §1

NCI-H2228 = system: NCI-H2228
Method in brief: as §1

H3255 = system: H3255
Method in brief: as §1

LK-2 = system: LK-2
Method in brief: as §1

NCI-H1793 = system: NCI-H1793
Method in brief: as §1

NCI-H2347 = system: NCI-H2347
Method in brief: as §1

NCI-H1563 = system: NCI-H1563
Method in brief: as §1

PC-14 = system: PC-14
Method in brief: as §1

COR-L23 = system: COR-L23
Method in brief: as §1

LC-2-ad = system: LC-2-ad
Method in brief: as §1

SW 1573 = system: SW 1573
Method in brief: as §1

## CCN(CC)CCCCNc1ncc2cc(-c3cc(OC)cc(OC)c3)c(NC(=O)NC(C)(C)C)nc2n1 + Cc1nc(NC(=O)N2CCC[C@H]2C(N)=O)sc1-c1ccnc(C(C)(C)C(F)(F)F)c1 [Alpelisib] (partner 2 µM)
LU99A; first compound 0.01 µM
  relative viability: 0.5
LU99A; first compound 0.03162 µM
  relative viability: 0.523
LU99A; first compound 0.1 µM
  relative viability: 0.55
LU99A; first compound 0.3162 µM
  relative viability: 0.666
LU99A; first compound 1 µM
  relative viability: 0.575
NCI-H596; first compound 0.01 µM
  relative viability: 0.528
NCI-H596; first compound 0.03162 µM
  relative viability: 0.48
NCI-H596; first compound 0.1 µM
  relative viability: 0.478
NCI-H596; first compound 0.3162 µM
  relative viability: 0.549
NCI-H596; first compound 1 µM
  relative viability: 0.368
LCLC-103H; first compound 0.01 µM
  relative viability: 1.09
LCLC-103H; first compound 0.03162 µM
  relative viability: 0.967
LCLC-103H; first compound 0.1 µM
  relative viability: 0.975
LCLC-103H; first compound 0.3162 µM
  relative viability: 1.01
LCLC-103H; first compound 1 µM
  relative viability: 1.01
HCC-44; first compound 0.01 µM
  relative viability: 0.93
HCC-44; first compound 0.03162 µM
  relative viability: 0.9
HCC-44; first compound 0.1 µM
  relative viability: 1.12
HCC-44; first compound 0.3162 µM
  relative viability: 0.87
HCC-44; first compound 1 µM
  relative viability: 0.772
PC-3 [JPC-3]; first compound 0.01 µM
  relative viability: 1.03
PC-3 [JPC-3]; first compound 0.03162 µM
  relative viability: 1.02
PC-3 [JPC-3]; first compound 0.1 µM
  relative viability: 0.99
PC-3 [JPC-3]; first compound 0.3162 µM
  relative viability: 1.05
PC-3 [JPC-3]; first compound 1 µM
  relative viability: 1.07
201T; first compound 0.01 µM
  relative viability: 1.05
201T; first compound 0.03162 µM
  relative viability: 1.01
201T; first compound 0.1 µM
  relative viability: 1.09
201T; first compound 0.3162 µM
  relative viability: 1.1
201T; first compound 1 µM
  relative viability: 0.97
NCI-H727; first compound 0.01 µM
  relative viability: 0.586
NCI-H727; first compound 0.03162 µM
  relative viability: 0.449
NCI-H727; first compound 0.1 µM
  relative viability: 0.678
NCI-H727; first compound 0.3162 µM
  relative viability: 0.579
NCI-H727; first compound 1 µM
  relative viability: 0.543
NCI-H23; first compound 0.01 µM
  relative viability: 0.706
NCI-H23; first compound 0.03162 µM
  relative viability: 0.735
NCI-H23; first compound 0.1 µM
  relative viability: 0.851
NCI-H23; first compound 0.3162 µM
  relative viability: 0.653
NCI-H23; first compound 1 µM
  relative viability: 0.678
LCLC-97TM1; first compound 0.03162 µM
  relative viability: 0.265
LCLC-97TM1; first compound 0.1 µM
  relative viability: 0.221
LCLC-97TM1; first compound 0.3162 µM
  relative viability: 0.216
LCLC-97TM1; first compound 1 µM
  relative viability: 0.244
NCI-H460; first compound 0.01 µM
  relative viability: 0.646
NCI-H460; first compound 0.03162 µM
  relative viability: 0.58
NCI-H460; first compound 0.1 µM
  relative viability: 0.82
NCI-H460; first compound 0.3162 µM
  relative viability: 0.463
NCI-H460; first compound 1 µM
  relative viability: 0.399
A-427; first compound 0.01 µM
  relative viability: 1.08
A-427; first compound 0.03162 µM
  relative viability: 1.08
A-427; first compound 0.1 µM
  relative viability: 1.1
A-427; first compound 0.3162 µM
  relative viability: 1.1
A-427; first compound 1 µM
  relative viability: 0.903
NCI-H2228; first compound 0.01 µM
  relative viability: 0.796
NCI-H2228; first compound 0.03162 µM
  relative viability: 0.755
NCI-H2228; first compound 0.1 µM
  relative viability: 0.913
NCI-H2228; first compound 0.3162 µM
  relative viability: 0.672
NCI-H2228; first compound 1 µM
  relative viability: 0.469
H3255; first compound 0.01 µM
  relative viability: 0.788
H3255; first compound 0.03162 µM
  relative viability: 0.71
H3255; first compound 0.1 µM
  relative viability: 0.728
H3255; first compound 0.3162 µM
  relative viability: 0.713
H3255; first compound 1 µM
  relative viability: 0.689
LK-2; first compound 0.01 µM
  relative viability: 0.679
LK-2; first compound 0.03162 µM
  relative viability: 0.891
LK-2; first compound 0.1 µM
  relative viability: 0.848
LK-2; first compound 0.3162 µM
  relative viability: 0.6
LK-2; first compound 1 µM
  relative viability: 0.301
NCI-H1793; first compound 0.01 µM
  relative viability: 0.748
NCI-H1793; first compound 0.1 µM
  relative viability: 0.958
NCI-H1793; first compound 0.3162 µM
  relative viability: 0.716
NCI-H1793; first compound 1 µM
  relative viability: 0.642
NCI-H2347; first compound 0.01 µM
  relative viability: 1.08
NCI-H2347; first compound 0.03162 µM
  relative viability: 1.09
NCI-H2347; first compound 0.1 µM
  relative viability: 1.04
NCI-H2347; first compound 0.3162 µM
  relative viability: 1.09
NCI-H2347; first compound 1 µM
  relative viability: 1.11
NCI-H1563; first compound 0.01 µM
  relative viability: 0.849
NCI-H1563; first compound 0.03162 µM
  relative viability: 0.96
NCI-H1563; first compound 0.1 µM
  relative viability: 0.896
NCI-H1563; first compound 0.3162 µM
  relative viability: 0.771
NCI-H1563; first compound 1 µM
  relative viability: 0.619
PC-14; first compound 0.01 µM
  relative viability: 1.02
PC-14; first compound 0.03162 µM
  relative viability: 1.08
PC-14; first compound 0.1 µM
  relative viability: 0.879
PC-14; first compound 0.3162 µM
  relative viability: 1.16
PC-14; first compound 1 µM
  relative viability: 0.943
COR-L23; first compound 0.01 µM
  relative viability: 0.819
COR-L23; first compound 0.03162 µM
  relative viability: 1.02
COR-L23; first compound 0.1 µM
  relative viability: 1.19
COR-L23; first compound 0.3162 µM
  relative viability: 0.787
COR-L23; first compound 1 µM
  relative viability: 0.856
LC-2-ad; first compound 0.01 µM
  relative viability: 1.03
LC-2-ad; first compound 0.03162 µM
  relative viability: 0.918
LC-2-ad; first compound 0.1 µM
  relative viability: 0.942
LC-2-ad; first compound 0.3162 µM
  relative viability: 1.07
LC-2-ad; first compound 1 µM
  relative viability: 0.865
SW 1573; first compound 0.01 µM
  relative viability: 0.727
SW 1573; first compound 0.03162 µM
  relative viability: 0.874
SW 1573; first compound 0.1 µM
  relative viability: 0.929
SW 1573; first compound 0.3162 µM
  relative viability: 0.796
SW 1573; first compound 1 µM
  relative viability: 0.782
